Source: PMC9218685, “Legume Plant Peptides as Sources of Novel Antimicrobial Molecules Against Human Pathogens” (Frontiers in Molecular Biosciences, 2022)
Peptide text beside a SMILES is read from it.

How the values were obtained:
Human red blood cells = experiment: Hemolysis assay; format: cell-based; conditions: 1 h at 37°C in TBS pH 7.2, peptides 0.4–100 μM, hemoglobin release OD560, relative to 0.5% Triton X-100 = 100%
Description: Human blood was purchased from the Regional Blood Centre in Szeged. The use of human blood for the hemolysis assay has been authorized by the Regional Hungarian Ethics Committee and approved by the Ethics Review Sector of DG RTD (European Commission) in connection with EK’s ERC AdG SymBiotics. The cells from 10 ml of EDTA-blood were centrifuged at 1,500 × g for 1 min and washed several times in TBS buffer (10 mM Tris, pH = 7.2, 150 mM NaCl) until the supernatant became colorless. The cells were then resuspended in 12 ml TBS buffer and 100 μl of this cell suspension was incubated for 1 h at 37°C in the presence of NCR peptides (0.4–100 μM). The cells were centrifuged at 1,500 g for 1 min and the supernatants were transferred into sterile 96-well plates and the hemoglobin release was measured at OD560 (Hidex Sense Microplate Reader with Plate Reader Software version 5064). […] The hemolytic activity was calculated as % of red blood cell disruption relative to the positive control sample lysed with detergent Triton X-100.
While AMPs can be very effective against microbes, they should not be toxic for human cells. […] Disruption of red blood cells was measured by spectrophotometry and compared to samples lysed with the detergent Triton X-100 (Supplementary Figure S2). […]

[1] = quoted in the Introduction; ref Kim et al., 2015; cited from earlier work
From the text: In the Inverted Repeat Lacking Clade (IRLC) of legumes, in addition to defensins, a related family of peptides has evolved that encodes nodule specific, cysteine-rich NCR peptides that play essential roles in symbiosis ([Mergaert et al., 2003]; [Nallu et al., 2013]; [Montiel et al., 2017]). Legume plants in symbiosis with their rhizobium bacterium partner form nitrogen-fixing root nodules. The primary role of the NCR peptides is to convert bacteria into large polyploid, non-cultivable nitrogen-fixing bacteroids in the nodule cells ([Van de Velde et al., 2010]). This is a terminal differentiati ... || IRLC includes 56 genera and more than 4,000 species ([Duan et al., 2021]), and presumably all species have NCRs as it was confirmed in a few selected species. The genus Astragalus, with 2,300–2,500 members, has the highest number of species among angiosperms ([Duan et al., 2021]). In A. canadensis 108 NCRs have been identified ([Montiel et al., 2017]), while in the members of the Vicioid subclade 200–700 NCRs ([Ištvánek et al., 2014]; [Montiel et al., 2017]), thus, it is reasonable to assume that IRLC species in total express hundreds of thousand different NCRs, providing almost unlimited amou ...

[2] = system: E. coli, S. enteritidis, P. aeruginosa, L. monocytogenes, S. aureus, E. faecalis, K. pneumoniae and A. baumannii; experiment: Antimicrobial activity assay, spectrum over the eight tested pathogenic bacteria; format: cell-based; conditions: 3 h treatment of ~10^7 log phase bacteria, peptides 25 to 0.8 µM; active = MBC ≤25 µM
Procedure, shortened: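 MBC taken as the lowest peptide concentration leaving no viable bacteria after 3 h exposure of ~10^7 log-phase cells. Peptides tested by 2-fold serial dilution, 25 µM down to 0.8 µM, in PPB (pH 7.4). Gram-positive and Gram-negative reference strains from ATCC, NCTC and HNCMO collections.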

| Compound | Hemolytic activity on human red blood cells (Human red blood cells) | net charge [1] | Antibacterial spectrum over the eight tested bacterial strains [2] |
| --- | --- | --- | --- |
| CC[C@H](C)[C@H](NC(=O)CNC(=O)[C@@H](NC(=O)[C@H](CCCNC(=N)N)NC(=O)[C@@H]1CCCN1C(=O)[C@H](CS)NC(=O)[C@H](CC(=O)O)NC(=O)[C@H](CCCCN)NC(=O)[C@H](CC(=O)O)NC(=O)[C@H](CCCCN)NC(=O)[C@@H](NC(=O)[C@H](CS)NC(=O)[C@H](CO)NC(=O)[C@H](Cc1c[nH]cn1)NC(=O)[C@H](CC(N)=O)NC(=O)[C@H](CCCNC(=N)N)NC(=O)[C@H](CC(C)C)NC(=O)[C@H](CC(N)=O)NC(=O)[C@@H](NC(=O)[C@@H](N)CO)[C@@H](C)CC)[C@@H](C)CC)C(C)C)C(=O)N[C@@H](CC(C)C)C(=O)N[C@@H](CC(N)=O)C(=O)N[C@H](C(=O)N[C@@H](CCCNC(=N)N)C(=O)N[C@@H](CS)C(=O)N[C@@H](CCCNC(=N)N)C(=O)N[C@@H](CCCCN)C(=O)NCC(=O)N[C@@H](Cc1ccccc1)C(=O)N[C@@H](CS)C(=O)N[C@H](C(=O)N[C@@H](Cc1c[nH]cn1)C(=O)N[C@H](C(=O)N[C@@H](CO)C(=O)O)[C@@H](C)CC)C(C)C)[C@@H](C)CC [MsNCR465] (H-SINLRNHSCIKDKDCPRVGILNIRCRKGFCVHIS-OH; N-terminus assumed) | mild hemolysis at 50 and 100 μM | – | – |
| DRECDTDTECQKKFPGVNAHHLWCDNGNCVSYPK [NCR211, anionic M. truncatula NCR peptide] | – | −2.1 | inactive |
